Earlier results in the CATMoS acute toxicity set (Mansouri et al. 2021).
“And” between values parts separate entries of the source, which are not always exact repeats. Equal values may be shown once.

Assay: rat acute oral toxicity
Conditions: in vivo

Question: For `CCOc1cc(C(C)(C)C)ccc1C1COC(c2c(F)cccc2F)=N1` (configuration not stated), which LD50 is on record?
Answer: 4270 mg/kg

Question: Which LD50 does the source give for `CCC(=O)OCC=Cc1ccccc1` here?
Answer: 3400 mg/kg

Question: Which LD50 does the source give for `CC(C(=O)O)c1ccc(N2Cc3ccccc3C2=O)cc1` (configuration not stated) here?
Answer: 84 mg/kg and 60.8 mg/kg

Question: Which LD50 does the source give for `CC(=O)O[C@@H]1C[C@]2(O)[C@H](CC[C@]3(C)[C@@H](c4ccc(=O)oc4)CC[C@@]32O)[C@@]2(C)CC[C@H](O[C@@H]3O[C@H](CO)[C@@H](O)[C@H](O)[C@H]3O)C=C12` here?
Answer: 0.43 mg/kg

Question: Which LD50 does the source give for `Cc1nc2n(c(=O)c1CCN1CCC(c3noc4cc(F)ccc34)CC1)CCCC2` here?
Answer: 56.6 mg/kg

Question: For `N#CCCCCC(=O)O`, which LD50 is on record?
Answer: 1000 mg/kg

Question: Which LD50 does the source give for `CCCC(C)(COC(N)=O)COC(=O)NC(C)C` (configuration not stated) here?
Answer: 1320 mg/kg

Question: With `O=S(=O)(O)c1ccc2c(/N=N\c3ccc(S(=O)(=O)O)c4ccccc34)c(O)c(S(=O)(=O)O)cc2c1` as the compound, how does the LD50 read?
Answer: 6000 mg/kg

Question: Which LD50 does the source give for `CN1CCCC(CN2c3ccccc3Sc3ccccc32)C1` (configuration not stated) here?
Answer: 1000 mg/kg

Question: Which LD50 does the source give for `C1CN1P1(N2CC2)=NP(N2CC2)(N2CC2)=NP(N2CC2)(N2CC2)=N1` here?
Answer: 98 mg/kg

Question: With `CN1[C@@H]2CC[C@H]1C[C@@H](OC(c1ccccc1)c1ccc(Cl)cc1)C2` (some centres not stated) as the compound, how does the LD50 read?
Answer: 364 mg/kg

Question: For `CCN(N=O)C(C)(C)C`, which LD50 is on record?
Answer: 1600 mg/kg

Question: For `CCC(C)Nc1ccc(NC(C)CC)cc1` (configuration not stated), which LD50 is on record?
Answer: 148 mg/kg

Question: Which LD50 does the source give for `C[N+]1(C)CCCC1COC(=O)C(O)(c1ccccc1)C1CCCCC1` (configuration not stated) here?
Answer: 780 mg/kg

Question: For `CN1C(=CC=CC2=[N+](C)c3ccccc3C2(C)C)C(C)(C)c2ccccc21`, which LD50 is on record?
Answer: 18 mg/kg

Question: With `CN(C)C(=S)SSC(=S)N(C)C` as the compound, how does the LD50 read?
Answer: 560 mg/kg

Question: Which LD50 does the source give for `CC(C)CNC(=S)NCC(C)C` here?
Answer: 800 mg/kg

Question: With `CC(C)CNC(=O)CF` as the compound, how does the LD50 read?
Answer: 42 mg/kg

Question: With `CCOP(=O)(OCC)Oc1ccc([N+](=O)[O-])c(Cl)c1` as the compound, how does the LD50 read?
Answer: 5 mg/kg

Question: For `CCOP(=S)(OCC)SC(CBr)N1C(=O)c2ccccc2C1=O` (configuration not stated), which LD50 is on record?
Answer: 18 mg/kg

Question: With `C[Si](C)(C)N=C=N[Si](C)(C)C` as the compound, how does the LD50 read?
Answer: 1730 mg/kg

Question: With `O=S1(=O)CC=CC1` as the compound, how does the LD50 read?
Answer: 2550 mg/kg

Question: For `O=C(NNCS(=O)(=O)O)c1ccncc1`, which LD50 is on record?
Answer: 14400 mg/kg

Question: For `Clc1nc(C(Cl)Cl)c(Cl)c(Cl)c1Cl`, which LD50 is on record?
Answer: 1780 mg/kg

Question: Which LD50 does the source give for `N#CCCSCCC#N` here?
Answer: 4210 mg/kg

Question: With `CCOP(=S)(CCl)Oc1ccc([N+](=O)[O-])cc1` (configuration not stated) as the compound, how does the LD50 read?
Answer: 127 mg/kg

Question: With `O=C(O)C(F)(F)C(F)(F)C(F)(F)F` as the compound, how does the LD50 read?
Answer: 2140 mg/kg

Question: Which LD50 does the source give for `Nc1nc(N)nc(-c2cc(Cl)ccc2Cl)n1` here?
Answer: 2900 mg/kg

Question: For `CN(CCn1cnc2c1c(=O)n(C)c(=O)n2C)C1CCCCC1`, which LD50 is on record?
Answer: 2880 mg/kg

Question: Which LD50 does the source give for `CCC12CCC3c4ccc(O)cc4CCC3C1CC(O)C2O` (configuration not stated) here?
Answer: 5010 mg/kg

Question: For `O=C1c2ccccc2C(=O)N1CCc1ccccn1`, which LD50 is on record?
Answer: 860 mg/kg

Question: Which LD50 does the source give for `CCCCS` here?
Answer: 1500 mg/kg

Question: With `CCC1(c2ccccc2)NC(=O)N(C)C1=O` (configuration not stated) as the compound, how does the LD50 read?
Answer: 850 mg/kg

Question: With `CC(C)/N=C(\N)NC(C)C` as the compound, how does the LD50 read?
Answer: 2880 mg/kg

Question: With `CN1CCC(C=C2c3ccccc3CCc3ccccc32)C1` (configuration not stated) as the compound, how does the LD50 read?
Answer: 303 mg/kg

Question: For `Cc1cccc(C(=O)Cl)c1`, which LD50 is on record?
Answer: 3440 mg/kg

Question: For `Fc1c(Br)c(Br)c2nc(C(F)(F)F)[nH]c2c1Br`, which LD50 is on record?
Answer: 9.64 mg/kg

Question: Which LD50 does the source give for `COc1cccc2c1C(=O)c1c(O)c3c(c(O)c1C2=O)C[C@@](O)(C(C)=O)C[C@@H]3O[C@H]1C[C@H](N)[C@H](O)[C@H](C)O1` here?
Answer: 336 mg/kg and 290 mg/kg

Question: For `CCCCCCCCCCOCCCN(C(=O)CC(C(=O)O)S(=O)(=O)O)C(CC(=O)OCC)C(=O)OCC` (configuration not stated), which LD50 is on record?
Answer: 16200 mg/kg

Question: With `CNC(=O)ON=C1SC(C)C(=O)NC1(C)C` (configuration not stated) as the compound, how does the LD50 read?
Answer: 0.884 mg/kg

Question: Which LD50 does the source give for `Oc1ccc2nc(C(F)(F)F)[nH]c2c1` here?
Answer: 41 mg/kg

Question: For `S=c1[nH]nc(NCNc2n[nH]c(=S)s2)s1`, which LD50 is on record?
Answer: 4640 mg/kg

Question: With `COC12C(COC(N)=O)C3=C(C(=O)C(C)=C(N)C3=O)N1CC1C2N1C` (configuration not stated) as the compound, how does the LD50 read?
Answer: 68 mg/kg

Question: Which LD50 does the source give for `CC(Cl)COP(=O)(OCC(C)Cl)Oc1ccc([N+](=O)[O-])cc1` (configuration not stated) here?
Answer: 173 mg/kg

Question: Which LD50 does the source give for `CN(C)CC/C=C1/c2ccccc2CSc2ccccc21` here?
Answer: 260 mg/kg

Question: For `Oc1ccc(NCc2ccccc2)cc1`, which LD50 is on record?
Answer: 400 mg/kg

Question: With `C=COC(=O)CCCCC(=O)OC` as the compound, how does the LD50 read?
Answer: 6200 mg/kg

Question: For `COP(=O)(OC)OC=C(Br)Br`, which LD50 is on record?
Answer: 253 mg/kg

Question: Which LD50 does the source give for `Cc1cccc(NC(N)=O)c1` here?
Answer: 1330 mg/kg

Question: With `O=C(O)C(c1ccccc1)c1ccccc1` as the compound, how does the LD50 read?
Answer: 5540 mg/kg

Question: With `CCOC(=O)c1c[n+](CC)c2n(c1=O)C(C)CCC2` (configuration not stated) as the compound, how does the LD50 read?
Answer: 1350 mg/kg

Question: For `Oc1c(Cl)c(Cl)cc(Cl)c1Cc1c(Cl)cc(Cl)c(Cl)c1O`, which LD50 is on record?
Answer: 100 mg/kg

Question: For `O=C(OCCOc1ccc(Cl)cc1Cl)c1ccccc1`, which LD50 is on record?
Answer: 1700 mg/kg

Question: Which LD50 does the source give for `C=CCOC(=O)Cc1ccccc1` here?
Answer: 650 mg/kg

Question: Which LD50 does the source give for `COc1ccc2c3c1O[C@H]1C[C@@H](O)C=C[C@@]31CCN(C)C2` here?
Answer: 75 mg/kg

Question: With `N#CCCNc1ccccc1` as the compound, how does the LD50 read?
Answer: 4700 mg/kg

Question: For `CCCCCCCCCCF`, which LD50 is on record?
Answer: 5 mg/kg

Question: For `c1ccc(Nc2ccc3ccccc3c2)cc1`, which LD50 is on record?
Answer: 8730 mg/kg

Question: With `Cc1ccc(N(C)C)cc1` as the compound, how does the LD50 read?
Answer: 1650 mg/kg

Question: Which LD50 does the source give for `C1=CC=CCC=C1` here?
Answer: 57 mg/kg

Question: Which LD50 does the source give for `CC(C)(C)CC1(C)CO1` (configuration not stated) here?
Answer: 4920 mg/kg

Question: For `S=c1[nH]c(=S)[nH]c(=S)[nH]1`, which LD50 is on record?
Answer: 9500 mg/kg

Question: Which LD50 does the source give for `CC(C)OCC1CO1` (configuration not stated) here?
Answer: 4200 mg/kg

Question: With `CCCC(CCC)C(=O)O[C@H]1C[C@H]2CC[C@@H](C1)[N+]2(C)C` as the compound, how does the LD50 read?
Answer: 705 mg/kg

Question: For `CC(C)C(=O)OCC(C)(C)C(O)C(C)C` (configuration not stated), which LD50 is on record?
Answer: 3200 mg/kg

Question: With `Cc1ccc(C(C)(C)C)cc1` as the compound, how does the LD50 read?
Answer: 1560 mg/kg

Question: For `COC(=O)[C@H]1[C@H]2C[C@@H]3c4[nH]c5cc(OC)ccc5c4CCN3C[C@H]2C[C@@H](OC(=O)c2cc(OC)c(OC)c(OC)c2)[C@@H]1OC`, which LD50 is on record?
Answer: 420 mg/kg

Question: With `O=Cc1ccc(Cl)cc1` as the compound, how does the LD50 read?
Answer: 1580 mg/kg

Question: Which LD50 does the source give for `CCCCCCOC(=O)c1ccccc1` here?
Answer: 12300 mg/kg

Question: With `N#CC(N=Nc1ccc(C(F)(F)F)cc1)=NNc1ccc(C(F)(F)F)cc1` as the compound, how does the LD50 read?
Answer: 613 mg/kg

Question: For `CCCC(=O)c1ccc2c(c1)N(CCCN1CCOCC1)c1ccccc1S2`, which LD50 is on record?
Answer: 3500 mg/kg

Question: For `CCCCCCCCCCCC[N+](C)(C)Cc1ccc(Cl)c(Cl)c1`, which LD50 is on record?
Answer: 730 mg/kg
